In patent publication US20240101552A1, “CARBONYL HETEROCYCLIC COMPOUND AND APPLICATION THEREOF” (SHANGHAI PHARMACEUTICALS HOLDING CO., LTD., priority 2020, published 2024):
“Also recorded” adds a separate entry of the source. Values belong to the compound of their own block, whether it stands above or below them.

Tests used:
LANCL2 = LANCL2 (Homo sapiens (Human), UniProt Q9NS86); test: SPR (BIACORE S200) kinetic determination of LANCL2-small molecule interactions; format: binding; conditions: for Kd: immobilized LANCL2, 1:1 binding model, pH 6.5, 25° C.; for Rmax (RU): maximum binding force
Protocol: 1.1 Reagent Materials • Ligand: LANCL2 • Running buffer: 20 mM MES, 150 mM NaCl, 0.05% P20, pH 6.5, 1% DMSO
Injection conditions for small molecule compounds: a flow rate of 30 μL/min, a binding time of 60 s, a dissociation time of 300 s.
Running buffer: 20 mM MES, 150 mM NaCl, 0.05% P20, pH 6.5, 1% DMSO.
Sample chamber temperature: 25° C.; analysis temperature: 25° C.
Kinetic determination of LANCL2-small molecule interactions was performed. The kinetic parameters of small molecules BT-11 and L-1 to 60 (analytes) binding to LANCL2 (ligand) were determined using BIACORE S200. Data were generated in triplicate in a dose-dependent manner (5-8 titration points) and analyzed to determine binding models (Langmuir, conformational shifts, etc.), real-time association and dissociation constants, and equilibrium dissociation constants. SPR technology allows the validation of specific LANCL2-phytochemical interactions as well as an increased insight into the gold standard of binding mechanisms and rates. Experiments were performed on carboxymethyl polydextrose (CM5) sensor chips by amine-coupled covalent attachment of LANCL2. Data were analyzed with BIACORE S200T200 evaluation software (version 1), so as to determine affinity binding constants (KD) using a 1:1 binding model.
An optical technique for detecting molecular interactions, SPR, was used to measure the binding affinity between LANCL2 and a ligand thereof (compound to be tested). Purified recombinant LANCL2 protein was immobilized on a BIACORE sensor chip and small molecules were injected onto the protein surface using an equipment of microfluidic system. The change in total mass on the chip surface, corresponding to a small binding to the protein, was measured. […] The equilibrium dissociation constant (Kd) was often used to describe the affinity between a ligand and a protein, such as affinity degree of a ligand binding to a specific protein. Ligand-protein affinity was affected by non-covalent intermolecular interactions between two molecules, such as hydrogen bonding, electrostatic interactions, hydrophobic bonds and van der Waals forces. The steady-state affinity (Kd) for each interaction could be measured by plotting equilibrium binding levels against compound concentrations.

[1] = test system: TNBS-induced colitis in mice; test: Alleviating effect on TNBS-induced colitis in mice, study (II); format: in vivo, Balb/c mice; conditions: for colon weight (FIG. 18B) / weight-to-length ratio of colon (FIG. 18C): L compounds PO 50 mpk BID, Mesalazine PO 100 mpk QD
Protocol: (§1) Sixty female Balb/c mice, weighing about 18 g and 8-10 weeks old, were randomly divided into twelve groups, including eleven model groups and one Sham control group. The administration was started on Day 1 and ended on Day 7, with the compounds prepared once a day, as detailed in Table 1 for route and frequency of administration, and Table 2 for compound preparation and volume of administration.
(§2) Balb/c mice weighing about 18-20 g were anesthetized with 0.25 mL of 1.25% Avertin on Day 0. The mice in the model group were perfused rectally with 150 μL of 1% TNBS solution (ethanol with a final concentration of 50%). The mice in the Sham control group were perfused rectally with 50% ethanol on Day 0.
(§3) The mouse colon was photographed, measured for the length, and weighed after the contents were removed. The colon of each mouse was then cut longitudinally at ½, rolled in a uniform direction by Swiss-roll method and fixed in neutral paraformaldehyde.
(§4) The DAI scoring consisted of 3 parts, taking the method of mixed scoring of weight change, stool and blood in stool, and the specific DAI scoring criteria were shown in Table 3. Throughout the experiment, the DAI scoring of all mice was done by the same person to ensure the scale consistency of the scoring.
The experimental data were statistically analyzed by ANOVA method, and data of other groups and the Vehicle (PO, QD) group were analyzed by Dunnett's test to compare data of multiple groups, *p<0.05, **p<0.01, ***p<0.005, ****p<0.0001

[2] = Solubility remark in the LANCL2 binding table (footnote a); format: physicochemical; set-up: key: ª: “a” indicated poor solubility
[3] = test system: TNBS-induced colitis in mice; test: Alleviating effect on TNBS-induced enteritis (colitis) in mice, study (I); format: in vivo, Balb/c mice; conditions: vs Vehicle group, Mesalamine PO 100 mpk QD
Protocol: Preparation method of L56: an appropriate amount of L56 compound was weighed into a brown sample vial, added with a certain volume of solvent 95% (20% HP-β-CD)+5% (10% sodium benzoate), the mixture was vortexed for 1 minute, and dissolved ultrasonically. The compound was prepared once a day.
Preparation method of L30: an appropriate amount of L30 compound was weighed into a brown sample vial, added with a certain volume of solvent 95% (20% HP-β-CD)+5% (10% sodium benzoate), the mixture was vortexed for 1 minute, and dissolved ultrasonically. The compound was prepared once a day.
Preparation method of Mesa (Mesalamine): an appropriate amount of Mesalamine (Selleck) was weighed into a brown sample vial, added with a certain volume of solvent 0.5% CMC-Na, the mixture was vortexed for 1 minute, and dissolved ultrasonically. The compound was prepared once a day.
as §1, with “Fifty-six” for “Sixty”, “seven” for “twelve”, “six” for “eleven”
as §2, §3, §4
The histopathological scoring was performed by a professional pathologist on the clinical pathology platform in a double-blind manner.
The experimental data were statistically analyzed by ANOVA method, positive drug Mesalamine (PO, 100 mpk, QD) group, L56 (PO, 50 mpk, BID) group, L30 (PO, 50 mpk, BID) group, *p<0.05, **p<0.01, ***p<0.005, ****p<0.0001

[4] = vs Vehicle group, PO, 50 mpk, BID

Sequence of LANCL2 (Q9NS86 whole entry, species assumed): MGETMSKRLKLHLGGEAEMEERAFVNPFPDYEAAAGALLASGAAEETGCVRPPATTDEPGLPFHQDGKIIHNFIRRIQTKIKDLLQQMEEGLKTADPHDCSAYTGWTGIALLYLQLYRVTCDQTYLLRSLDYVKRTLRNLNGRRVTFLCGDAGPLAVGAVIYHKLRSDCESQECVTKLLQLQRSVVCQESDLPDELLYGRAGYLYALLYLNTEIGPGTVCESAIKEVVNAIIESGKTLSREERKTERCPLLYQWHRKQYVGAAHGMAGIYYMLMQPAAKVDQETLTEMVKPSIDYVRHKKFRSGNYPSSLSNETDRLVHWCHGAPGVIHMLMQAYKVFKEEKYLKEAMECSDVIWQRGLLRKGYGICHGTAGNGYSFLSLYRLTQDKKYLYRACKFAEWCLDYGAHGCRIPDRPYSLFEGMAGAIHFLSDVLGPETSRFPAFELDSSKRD

SMILES: Nc1ccc(O)c(C(=O)O)c1 [Mesalamine]
- colon tissue pathological scores (HE staining) ([3]; L56 PO 50 mpk BID): lower colon tissue pathological scores with a statistically significant difference
- DAI scores (FIG. 13B) ([3]; L compounds PO 50 mpk BID): significantly lower
- colon length (FIG. 14B) ([3]; L compounds PO 50 mpk BID): significantly more colon length
- colon weight (FIG. 14C) ([3]; L compounds PO 50 mpk BID): less colon weight
- weight loss of the mice (FIG. 13A) ([3]; L compounds PO 50 mpk BID): significantly slowed down
- weight-to-length ratio of colon (FIG. 14A) ([3]; L compounds PO 50 mpk BID): significantly lower
- colon weight (FIG. 18B) ([1]; vs Vehicle group): less colon weight
- weight-to-length ratio of colon (FIG. 18C) ([1]; vs Vehicle group): significantly lower

SMILES: O=C(NC1C2CN(C(=O)c3cccc(-c4nc5ccccc5[nH]4)n3)CC21)c1cccc(-c2nc3ccccc3[nH]2)n1 [Embodiment L-11, N-(3-(6-(1H-benzo[d]imidazol-2-yl)picolinoyl)-3-azabicyclo[3.1.0]hexan-6-yl)-6-(1H-benzo[d]imidazol-2-yl)pyridinecarboxamide]
- binding activity compared with positive reference compound BT-11 (LANCL2): better binding activities than the positive reference compound BT-11
- Kd (LANCL2): 3.67 µM
- Rmax (RU) (LANCL2): 4.2 RU
- alleviation of TNBS-induced colitis / inflammation (conclusion) ([1]; PO, 50 mpk, BID): could significantly alleviate the occurrence of inflammation in mice with TNBS-induced colitis; also recorded: could effectively alleviate TNBS-induced colitis in mice
- alleviation of symptoms of diarrhea and blood in stool ([1]; PO, 50 mpk, BID): could effectively alleviate the symptoms of diarrhea and blood in stool in TNBS model mice
- alleviation of weight loss caused by TNBS-induced colitis (body weight changes and DAI scores combined) ([1]; PO, 50 mpk, BID): could effectively alleviate the weight loss in mice caused by TNBS-induced colitis
- colon weight (FIG. 18B) ([1]; vs Vehicle group): less colon weight
- weight-to-length ratio of colon (FIG. 18C) ([1]; vs Vehicle group): significantly lower
- DAI scores (FIG. 16B) [1, 4]: significantly lower
- blood in stool score (FIG. 17B) [1, 4]: significantly slowed down
- colon length (FIG. 18A) [1, 4]: significantly more colon length
- diarrhea score (FIG. 17A) [1, 4]: significantly slowed down
- weight loss of the mice (FIG. 16A) [1, 4]: significantly slowed down

SMILES: O=C1CCC(C(=O)N2CC3CN(C(=O)c4cccc(-c5nc6ccccc6[nH]5)n4)CC3C2)=NN1 [Embodiment L-121, 6-(5-(6-(1Hbenzo[d]imidazol-2-yl)picolinoyl)octahydropyrrolo[3,4-c]pyrrole-2-carbonyl)-4,5-dihydropyridazin-3(2H)-one]
- Kd (LANCL2): 20.8 µM
- Rmax (RU) (LANCL2): 2.3 RU

SMILES: CCCCOc1ccc(C(=O)NC2CCN(C(=O)c3cccc(-c4cn5ccccc5n4)c3)CC2)cc1 [Embodiment L-107, 4-Butoxy-N-(1-(3-(imidazo[1,2-a]pyridin-2-yl)benzoyl)piperidin-4-yl)benzamide]
- Kd (LANCL2): 6.19 µM
- Rmax (RU) (LANCL2): 4.5 RU

SMILES: Cc1ccc2cc(C(=O)N3CC4CN(C(=O)c5cccc(-c6nc7ccccc7[nH]6)n5)CC4C3)ccc2n1 [Embodiment L-125, (5-(6-(1Hbenzo[d]imidazol-2-yl)picolinoyl)hexahydropyrrolo[3,4-c]pyrrol-2(1H)-yl)(2-methylquinolin-6-yl)methanone]
- Kd (LANCL2): 23.5 µM
- Rmax (RU) (LANCL2): 5.2 RU

SMILES: O=C(c1cccc(Nc2ccccc2)n1)N1CCCC2(CCN(C(=O)c3cccc(-c4nc5ccccc5[nH]4)n3)CC2)C1 [Embodiment L-63, (9-(6-(1H-benzo[d]imidazol-2-yl)picolinoyl)-2,9-diazaspiro[5.5]undecan-2-yl)(6-(phenylamino)pyridin-2-yl)methanone]
- Kd (LANCL2): 53.5 µM
- Rmax (RU) (LANCL2): 7.6 RU

SMILES: Cc1cn(-c2cccc(C(=O)N3CC4C(C3)C4NC(=O)c3cccc(-c4nc5ccccc5[nH]4)n3)c2)cn1 [Embodiment L-93, 6-(1H-benzo[d]imidazol-2-yl)-N-(3-(3-(4-methyl-1H-imidazol-1-yl)benzoyl)-3-azabicyclo[3.1.0]hexane-6-yl)picolinamide]
- Kd (LANCL2): 5.84 µM
- Rmax (RU) (LANCL2): 8 RU

More lines, main results first:

- Kd (LANCL2): 4.46 µM
- Rmax (RU) (LANCL2): 3.6 RU
SMILES: O=C(c1cccc(-c2nc3ccccc3[nH]2)n1)N1CCN(C(=O)c2cccc(-c3nc4ccccc4[nH]3)n2)CC1 [BT-11, reference compound]
- weight loss of the mice (FIG. 16A) [1, 4]: not significantly slowed down

- solubility (footnote a) [2]: ª
SMILES: O=C(c1cccc(-c2cn3ccccc3n2)c1)N1CCN(C(=O)c2cccc(-c3cn4ccccc4n3)c2)CC1 [Embodiment L-36, Piperazine-1,4-diylbis((3-(imidazol[1,2-a]pyridin-2-yl)phenyl)methanone)]

- Kd (LANCL2): 27 µM
- Rmax (RU) (LANCL2): 3.2 RU
SMILES: Cc1cn(-c2cccc(C(=O)N3CCN(C(=O)c4cccc(-c5nc6ccccc6[nH]5)n4)CC3)c2)cn1 [Embodiment L-117, (4-(6-(1H-benzo[d]imidazol-2-yl)picolinoyl)piperazin-1-yl)(3-(4-methyl-1H-imidazol-1-yl)phenyl)methanone]

- Kd (LANCL2): 6.93 µM
- Rmax (RU) (LANCL2): 5.3 RU
SMILES: O=C(c1cccc(-c2cn3ccccc3n2)c1)N1CCC2(CC1)CCN(C(=O)c1cccc(Nc3ccccc3)n1)CC2 [Embodiment L-72, (9-(3-(imidazo[1,2-a]pyridin-2-yl)benzoyl)-3,9-diazaspiro[5.5]undecan-3-yl)(6-(phenylamino)pyridin-2-yl)methanone]
